Experimental data reported in patent KR20170076438A, “필리게닌을 포함하는 피부상태 개선용 조성물” (주식회사 엘지생활건강, priority 2015, dated 2017).

Experiments:
[1] = test system: B-16 mouse melanoma cell [쥐의 멜라노마 세포(B-16 mouse melanoma cell)]; assay: Total melanin amount in B-16 mouse melanoma cells; type: cell-based; details: 3 days; for melanin production amount: absorbance at 400 nm per 1×10^6 cells, DMSO control 0.33
[2] = target: T1, elastase [엘라스테이즈(Elastase)] (Homo sapiens, UniProt P08246); assay: Elastase activity inhibition (human leukocyte elastase, MeOSuc-Ala-Ala-Pro-Val-pNA); type: biochemical; details: for enzyme activity: slope of absorbance at 405 nm vs time, room temperature, 20 min, n=3, DMSO control 10.4
T1 construct: 엘라스테이즈(Elastase)는 사람의 백혈구 세포로부터 유래한 엘라스테이즈를 사용하였고; from tissue; host or cells: human leukocytes (사람의 백혈구 세포)
T1 sequence (P08246 30-267): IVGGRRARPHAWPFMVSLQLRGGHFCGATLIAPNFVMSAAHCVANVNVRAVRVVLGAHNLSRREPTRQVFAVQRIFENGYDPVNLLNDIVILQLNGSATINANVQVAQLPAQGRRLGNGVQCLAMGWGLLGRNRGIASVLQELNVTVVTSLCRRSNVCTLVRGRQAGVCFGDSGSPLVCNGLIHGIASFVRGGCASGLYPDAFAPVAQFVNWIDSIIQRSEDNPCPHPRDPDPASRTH

[3] = test system: type I collagen [제1형 콜라겐(type I collagen)]; assay: Type I collagen synthesis in human-derived fibroblasts (PICP EIA kit); type: cell-based; details: 48 h culture, n=4; for type I collagen synthesis amount: negative control 150.2; for increase rate (type I collagen synthesis): relative to untreated control
[4] = test system: nitric oxide (NO) production in RAW264.7 cells [RAW264.7 세포주, Nitric oxide(NO)]; assay: NO production inhibition in LPS-stimulated RAW264.7 cells (GRIESS method); type: cell-based; details: Mus musculus, LPS 1 μg, 24 h, 540 nm, read-out: NO production inhibition rate
[5] = Anti-glycation assay (L-arginine and glucose, absorbance at 420 nm); type: biochemical; details: pH 7.4, 70 ℃, 4 h, 0.1 M glucose
[6] = Mus musculus, 72 h, 10 ppm, relative to control, read-out: increase rate (total melanin)
[7] = pH 7.5, read-out: inhibition rate (elastase)

SMILES: COc1cc([C@H]2OC[C@H]3[C@@H]2CO[C@H]3c2ccc(OC)c(OC)c2)ccc1O [화학식1의 화합물, phillygenin]
- melanin production amount ([1]; 1 ppm): 0.359 abs
- melanin production amount ([1]; 10 ppm): 0.403 abs
- activation at 1 ppm ([1]; Mus musculus, 72 h, 1 ppm, relative to control, read-out: increase rate (total melanin)): 8.79%
- activation at 10 ppm [1, 6]: 22.1%
- enzyme activity ([2]; 10 ppm): 3.9
- enzyme activity ([2]; 20 ppm): 3.5
- inhibition at 10 ppm [2, 7]: 62.5%
- inhibition at 20 ppm [2, 7]: 66.3%
- type I collagen synthesis amount ([3]; 1 ppm): 187.6 ng/mL
- increase rate (type I collagen synthesis) ([3]; 1 ppm): 24.9%
- type I collagen synthesis amount ([3]; 10 ppm): 234.7 ng/mL
- increase rate (type I collagen synthesis) ([3]; 10 ppm): 56.3%
- inhibition at 1 ppm ([4]; 1 ppm): 17.9%
- inhibition at 10 ppm [4]: 20.6%
- inhibition at 100 ppm ([4]; 100 ppm): 51.7%
- inhibition rate (glycation) ([5]; 25 ppm): 32.68%
- inhibition rate (glycation) ([5]; 50 ppm): 55.64%

SMILES: C=C[C@@]1(C)CC(=O)[C@]2(O)[C@@]3(C)[C@@H](O)CCC(C)(C)[C@@H]3[C@H](O)[C@H](OC(C)=O)[C@@]2(C)O1 [Forskolin, reference compound]
- melanin production amount ([1]; 10 ppm): 0.792 abs
- activation at 10 ppm [1, 6]: 140%

SMILES: CNC(=N)NCCC[C@H](N)C(=O)O [L-NMMA, L-NG-Monomethylarginine, reference compound]
- inhibition at 10 ppm [4]: 41%

SMILES: N=C(N)NN [Aminoguanidine, reference compound]
- inhibition rate (glycation) ([5]; 55 ppm): 54.89%

SMILES: O=C1O[C@H]([C@@H](O)CO)C(O)=C1O [비타민 C, reference compound]
- type I collagen synthesis amount ([3]; 52.85 ppm (52.85 ㎍/ml)): 246.8 ng/mL
- increase rate (type I collagen synthesis) ([3]; 52.85 ppm (52.85 ㎍/ml)): 64.3%
